# Experimental data taken from the Kinase Knowledgebase extract (Sharma et al. 2016).
# How the values were obtained:
# EGFR (human) [1] = target: EGFR (human) (UniProt P00533); conditions: mb435
# EGFR (human) [2] = target: EGFR (human) (UniProt P00533); conditions: mcf-7
# EGFR (human) [3] = target: EGFR (human) (UniProt P00533); conditions: a431
# EGFR (human) [4] = target: EGFR (human) (UniProt P00533); conditions: sw-620
# EGFR (human) [5] = target: EGFR (human) (UniProt P00533); conditions: a2780ddp
# EGFR = EGFR (UniProt P00533)
# EGFR (human) [6] = target: EGFR (human) (UniProt P00533); conditions: a2780s
# EGFR (human) [7] = target: EGFR (human) (UniProt P00533); conditions: lox
# EGFR (human) [8] = target: EGFR (human) (UniProt P00533)
# EGFR (human) [9] = target: EGFR (human) (UniProt P00533); conditions: skbr3
# Sequence of EGFR (human) (P00533 whole entry, looked up): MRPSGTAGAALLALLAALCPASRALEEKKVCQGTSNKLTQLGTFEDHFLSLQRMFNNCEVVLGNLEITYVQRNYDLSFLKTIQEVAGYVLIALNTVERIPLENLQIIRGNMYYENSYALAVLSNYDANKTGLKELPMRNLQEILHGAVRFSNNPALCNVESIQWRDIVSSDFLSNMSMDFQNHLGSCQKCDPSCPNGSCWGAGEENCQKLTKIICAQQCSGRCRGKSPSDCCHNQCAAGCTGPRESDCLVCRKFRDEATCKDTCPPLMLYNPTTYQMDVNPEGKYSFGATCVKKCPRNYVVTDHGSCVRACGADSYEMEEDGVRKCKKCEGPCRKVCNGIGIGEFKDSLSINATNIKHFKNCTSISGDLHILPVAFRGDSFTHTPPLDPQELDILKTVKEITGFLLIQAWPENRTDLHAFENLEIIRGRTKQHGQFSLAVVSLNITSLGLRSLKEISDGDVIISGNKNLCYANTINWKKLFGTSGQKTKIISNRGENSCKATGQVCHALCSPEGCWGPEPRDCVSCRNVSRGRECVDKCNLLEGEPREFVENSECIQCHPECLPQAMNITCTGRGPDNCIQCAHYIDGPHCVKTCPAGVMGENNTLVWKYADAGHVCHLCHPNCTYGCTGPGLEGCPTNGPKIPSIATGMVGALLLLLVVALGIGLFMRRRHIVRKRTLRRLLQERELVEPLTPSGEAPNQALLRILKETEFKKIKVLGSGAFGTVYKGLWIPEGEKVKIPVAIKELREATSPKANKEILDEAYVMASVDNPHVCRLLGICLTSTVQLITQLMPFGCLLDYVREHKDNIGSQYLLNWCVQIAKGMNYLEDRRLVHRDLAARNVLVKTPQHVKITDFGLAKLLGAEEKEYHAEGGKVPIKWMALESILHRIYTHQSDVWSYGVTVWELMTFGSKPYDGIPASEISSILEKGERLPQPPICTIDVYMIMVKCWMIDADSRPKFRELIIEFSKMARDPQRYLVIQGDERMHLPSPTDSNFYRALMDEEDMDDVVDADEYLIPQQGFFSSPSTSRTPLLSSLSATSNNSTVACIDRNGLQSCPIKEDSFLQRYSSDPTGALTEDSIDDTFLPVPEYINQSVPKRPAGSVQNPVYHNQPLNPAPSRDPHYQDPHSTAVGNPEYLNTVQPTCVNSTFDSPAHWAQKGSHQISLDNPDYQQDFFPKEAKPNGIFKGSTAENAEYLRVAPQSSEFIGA
# Sequence of EGFR (P00533 whole entry, looked up): as above
IC50 (EGFR (human) [1]),IC50 (EGFR (human) [2]),IC50 (EGFR (human) [3]),IC50 (EGFR (human) [4]),IC50 (EGFR (human) [5]),IC50 (EGFR),IC50 (EGFR (human) [6]),IC50 (EGFR (human) [7]),IC50 (EGFR (human) [8]),IC50 (EGFR (human) [9]),SMILES
4.5 µg/mL,17 µg/mL,0.6 µg/mL,5.5 µg/mL,4 µg/mL,5 pM,0.8 µg/mL,3.9 µg/mL,,,C=C(CN1CCOCC1)C(=O)Nc1ccc2ncnc(Nc3cccc(Br)c3)c2c1
,,,,,,,,840 pM,,CSSC(C)C(=O)Nc1ccc2ncnc(Nc3cccc(Br)c3)c2c1 (centres undefined)
45 µg/mL,59 µg/mL,0.01 µg/mL,52 µg/mL,43 µg/mL,75 pM,22 µg/mL,46 µg/mL,,< 0.01 µg/mL,CCN(CC)C/C=C/C(=O)Nc1ccc2ncnc(Nc3cccc(Br)c3)c2c1
,,,,,10 pM,,,,,O=C(/C=C/CBr)Nc1ccc2ncnc(Nc3cccc(Br)c3)c2c1
